How the values were obtained:
[1] = system: TNF production by monocytes; assay: Lipopolysaccharide-Activated Monocyte TNF Production Assay (LPS induced TNF release); format: cell-based; settings: Homo sapiens, LPS-activated adherent monocytes from PBMCs
Experimental: Lipopolysaccharide-Activated Monocyte TNF Production Assay
Test compounds were evaluated in vitro for the ability to inhibit the production of TNF by monocytes activated with bacterial lipopolysaccharide (LPS). Fresh residual source leukocytes (a byproduct of plateletpheresis) were obtained from a local blood bank, and peripheral blood mononuclear cells (PBMCs) were isolated by density gradient centrifugation on Ficol-Paque Plus (Pharmacia). PBMCs were suspended at 2×10^6/mL in DMEM supplemented to contain 2% FCS, 10 mM, 0.3 mg/mL […], 100 U/mL penicillin G and […] streptomycin sulfate (complete media). Cells were plated into Falcon flat bottom, 96 well culture plates (200 μL/well) and cultured overnight at 37° C. and 6% CO2. Non-adherent cells were removed by washing with 200 μl/well of fresh medium. Wells containing adherent cells (˜70% monocytes) were replenished with 100 μL of fresh medium.
Preparation of Test Compound Stock Solutions
Test compounds were dissolved in […]. Compound stock solutions were prepared to an initial concentration of […]. Stocks were diluted initially to 20-200 μM in complete media. Nine two-fold serial dilutions of each compound were then prepared in complete medium. Treatment of cells with test compounds and activation of TNF production with lipopolysaccharide.
One hundred microliters of each test compound dilution were added to microtiter wells containing adherent monocytes and 100 μL complete medium. Monocytes were cultured with test compounds for 60 min at which time 25 μL of complete medium containing 30 ng/mL lipopolysaccharide from E. coli K532 were added to each well. Cells were cultured an additional 4 hrs. Culture supernatants were then removed and TNF presence in the supernatants was quantified using an ELISA.
Flat bottom, 96 well Corning High Binding ELISA plates were coated overnight (4° C.) with 150 μL/well of 3 μg/mL murine anti-human TNF-α MAb (R&D Systems #MAB210). Wells were then blocked for 1 h at room temperature with 200 μL/well of CaCl2-free ELISA buffer supplemented to contain 20 mg/mL BSA (standard ELISA buffer: […], 150 mM NaCl, 2 mM CaCl2, 0.15 mM thimerosal, pH 7.4). Plates were washed and replenished with 100 μL of test supernatants (diluted 1:3) or standards. Standards consisted of eleven 1.5-fold serial dilutions from a stock of 1 ng/mL recombinant human TNF (R&D Systems). Plates were incubated at room temperature for 1 h on orbital shaker (300 rpm), washed and replenished with 100 μL/well of 0.5 μg/mL goat anti-human TNF-α(R&D systems #AB-210-NA) biotinylated at a 4:1 ratio. Plates were incubated for 40 min, washed and replenished with 100 μL/well of alkaline phosphatase-conjugated streptavidin (Jackson ImmunoResearch #016-050-084) at 0.02 μg/mL. Plates were incubated 30 min, washed and replenished with 200 μL/well of 1 mg/mL of p-nitrophenyl phosphate. After 30 min, plates were read at 405 nm on a Vmax plate reader.
Standard curve data were fit to a second order polynomial and unknown TNF-α concentrations determined from their OD by solving this equation for concentration. TNF concentrations were then plotted vs. test compound concentration using a second order polynomial. This equation was then used to calculate the concentration of test compounds causing a 50% reduction in TNF production.

[2] = system: TNF-α secretion by THP1 cells; assay: Lipopolysaccharide-Activated THP1 Cell TNF Production Assay (THP-cellular TNF release assay); format: cell-based; settings: Homo sapiens, THP-1, LPS-activated THP1 cells
Experimental: Lipopolysaccharide-Activated THP1 Cell TNF Production Assay
THP1 cells are re-suspended in fresh THP1 media (RPMI 1640, 10% heat-inactivated FBS, 1XPGS, 1XNEM, plus 30 μM βME) at a concentration of 1E6/mL. One hundred microliters of cells per well were plated in a polystyrene 96-well tissue culture. One microgram per mL of bacterial LPS is prepared in THP1 media and is transferred to the wells. Test compounds are dissolved in 100% DMSO and are serially diluted 3 fold in a polypropylene 96-well microtiter plate (drug plate). HI control and LO control wells contain only DMSO. One microliter of test compound from the drug plate followed by 10 μL of LPS were transferred to the cell plate. The treated cells are induced to synthesize and secrete TNF-α at 37° C. for 3 h. Forty microliters of conditioned media are transferred to a 96-well polypropylene plate containing 110 μL of ECL buffer (50 mM Tris-HCl pH 8.0, 100 mM NaCl, 0.05% Tween 20, 0.05% NaN3 and 1% FBS) supplemented with 0.44 nM MAB610 monoclonal Ab (R&D Systems), 0.34 nM ruthenylated AF210NA polyclonal Ab (R&D Systems) and 44 μg/mL sheep anti-mouse M280 Dynabeads (Dynal). After a 2 h incubation at room temperature with shaking, the reaction is read on the ECL M8 Instrument (IGEN Inc.). A low voltage is applied to the ruthenylated TNF-α immune complexes, which in the presence of TPA (the active component in Origlo), results in a cyclical redox reaction generating light at […]. The amount of secreted TNF-αin the presence of compound compared with that in the presence of DMSO vehicle alone (HI control) is calculated using the formula: % control (POC)=(cpd−average LO)/(average HI−average LO)*100. Data (consisting of POC and inhibitor concentration in μM) is fitted to a 4-parameter equation (y=A+((B−A)/(1+((x/C)^D))), where A is the minimum y (POC) value, B is the maximum y (POC), C is the x (cpd concentration) at the point of inflection and D is the slope factor) using a Levenburg-Marquardt non-linear regression algorithm.

| Structure (SMILES) | IC50 [1] | IC50 [2] |
| --- | --- | --- |
| Cc1ccc(C(=O)NC2CC2)cc1-c1ccc2c(cnc(=O)n2CCN2CCOCC2)c1 [Example 8, N-Cyclopropyl-4-methyl-3-(1-(2-morpholinoethyl)-2-oxo-1,2-dihydroquinazolin-6-yl)benzamide] | ≤ 25 µM |  |
| COc1ccc(CN2Cc3cc(-c4cc(C(=O)NC5CC5)ccc4C)ccc3NC2=O)cc1 [Example 2, 3-(3-(4-Methoxybenzyl)-2-oxo-1,2,3,4-tetrahydroquinazolin-6-yl)-N-cyclopropyl-4-methylbenzamide] | ≤ 25 µM | ≤ 2500 nM |
| Cc1ccc(C(=O)NC2CC2)cc1-c1ccc2c(cnc(=O)n2-c2ccccc2C)c1 [Example 6, N-Cyclopropyl-4-methyl-3-(2-oxo-1-o-tolyl-1,2-dihydroquinazolin-6-yl)benzamide] | ≤ 25 µM |  |
| Cc1ccc(C(=O)NC2CC2)cc1-c1ccc2c(c1)CNC(=O)N2c1ccccc1C [Example 5, N-Cyclopropyl-4-methyl-3-(2-oxo-1-o-tolyl-1,2,3,4-tetrahydroquinazolin-6-yl)benzamide] | ≤ 25 µM |  |
| O=c1ncc2cc(Cl)ccc2n1Cc1ccccc1 [Example 1, 1-Benzyl-6-chloroquinazolin-2-(1H)-one] | ≤ 25 µM | ≤ 2500 nM |
| Cc1ccc(C(=O)NC2CC2)cc1-c1ccc2c(cnc(=O)n2-c2ccccc2Cl)c1 [Example 3] | ≤ 25 µM |  |
| Cc1ccncc1-c1ccc2c(c1)CNC(=O)N2c1ccccc1Cl [Example 4, 1-(2-Chlorophenyl)-6-(4-methylpyridin-3-yl)-3,4-dihydroquinazolin-2(1H)-one] | ≤ 25 µM | ≤ 2500 nM |
| Cc1ccc(C(=O)NC2CC2)cc1-c1ccc2c(cnc(=O)n2C2CCOCC2)c1 [Example 13, N-cyclopropyl-4-methyl-3-(2-oxo-1-(tetrahydro-2H-pyran-4-yl)-1,2-dihydro-6-quinazolinyl)benzamide] | ≤ 25 µM |  |
| Cc1ccc(C(=O)NC2CC2)cc1-c1ccc2c(cnc(=O)n2C2CCN(C(=O)OC(C)(C)C)CC2)c1 [Example 10, tert-Butyl 4-(6-(5-(cyclopropylcarbamoyl)-2-methylphenyl)-2-oxoquinazolin-1(2H)-yl)piperidine-1-carboxylate] | ≤ 25 µM |  |
| Cc1ccc(C(=O)NC2CC2)cc1-c1ccc2c(c1)CNC(=O)N2c1ccccc1Cl [Example 11, 3-(1-(2-chlorophenyl)-2-oxo-1,2,3,4-tetrahydro-6-quinazolinyl)-N-cyclopropyl-4-methylbenzamide] | ≤ 25 µM |  |
| Cc1ccc(C(=O)NC2CC2)cc1-c1cnc2c(c1)CNC(=O)N2c1ccccc1Cl [Example 12, 3-(1-(2-chlorophenyl)-2-oxo-1,2,3,4-tetrahydropyrido[2,3-d]pyrimidin-6-yl)-N-cyclopropyl-4-methylbenzamide] | ≤ 25 µM | ≤ 2500 nM |

Reference: patent US7935709B2, “2-quinazolinone compounds and methods of use” (Amgen Inc., priority 2006, dated 2011)
